Compound	logP
COP(=S)(OC)Oc1ccc([N+](=O)[O-])cc1	2.86
CC1NC(=O)C(CC(=O)NC(Cc2c[nH]c3ccccc23)C(=O)NC(Cc2ccccc2)C(=O)N(C)Cc2ccccc2)NC1=O (configuration not stated)	3.18
CS(=O)CC(=O)C=NO (configuration not stated)	-0.72
O=C(O)Cc1c[nH]c2ccccc12	1.41
O=C(Nc1ccc([N+](=O)[O-])cc1)c1cccnc1	1.82
BrCCBr	1.96
CCCNC(=O)NS(=O)(=O)c1ccc(Cl)cc1	2.27
O=[N+]([O-])c1cc(Cl)c(O)c(Cl)c1	2.94
O=C1C=CC(=O)N1	-0.29
Cc1ccc2ccccc2n1	2.59
Oc1cccc(O)c1	0.8
CCCCCCCCCCCCCC	7.2
O=C(O)c1cccc(O)c1	1.5
CF	0.51
Cn1c(N)nc2cc(Cl)ccc21	2.09
Cc1ccc(C(C)C)cc1	4.1
CC(=O)Nc1ccc2cccccc1-2	2.48
N#Cc1cccc(OCC(=O)O)c1	0.95
COc1ccc2cc(C(C)C(=O)OCC(=O)N(C)CC(N)=O)ccc2c1 (configuration not stated)	1.37
Cc1ccnc2c(O)ccc(O)c12	1.59
c1ccc(Sc2cccnc2)cc1	3.15
C=CCC(CC=C)(NC(C)=O)C(N)=O	0.05
Nc1ccnc2ccccc12	1.63

Compound	logP
CCCCc1c(C)nc(NCC)nc1OS(=O)(=O)N(C)C	2.7
CCOP(=O)(OCC)SCn1nnc2ccccc2c1=O	1.63
Oc1ccc(Cl)c2ccccc12	3.94
O=C1c2ccccc2C(=O)c2ccccc21	3.39
CNc1cnn(-c2cccc(C(F)(F)F)c2)c(=O)c1Cl	2.3
Cc1cnc(NS(=O)(=O)c2ccc(N)cc2)c(Br)c1	1.79
CCOC(=O)C(SP(=S)(OC)OC)c1ccccc1 (configuration not stated)	3.69
O=C1C=C(N2CC=CC2)C(=O)c2ccccc21	2.85
CCCN(CCC)S(=O)(=O)c1ccc(C(=O)O)cc1	3.21
CS(=O)(=O)CCC(N)C(=O)O (configuration not stated)	-3.1
FC(F)(F)Cl	1.65
CCCOC(=O)c1ccccc1	3.01
Cc1ccncc1	1.22
Nc1nc(=O)c2ccccc2o1	0.27
C1CN2CCC1CC2	1.38
CN(C)C(N(C)C)=S(I)c1ccc(Cl)c(Cl)c1 (configuration not stated)	0.49
OCCN1CCN(CCCN2c3ccccc3Sc3ccc(Cl)cc32)CC1	4.2
Cc1cccs1	2.33
Nc1c([N+](=O)[O-])cc(C(F)(F)F)cc1[N+](=O)[O-]	2.29
CCCOP(OCCC)OCCC	2.26
Cc1ccc2cc3c(ccc4ccccc43)c3c2c1CC3	6.42
NC(=O)CCCCc1ccccn1	0.38
CCc1ccsc1	2.82

Compound	logP
O=NN(CCCl)C(=O)Nc1ccccc1	2.49
O=C1CCCCN1	-0.46
CNP(=O)(OC)Oc1ccc(C(C)(C)C)cc1Cl (configuration not stated)	3.42
C=C(Br)CC1(C(C)C)C(=O)NC(=O)N(C)C1=O (configuration not stated)	2.11
OC(O)C(Cl)(Cl)Cl	0.99
C=CCCCCCCCCC(=O)O	3.86
CC(C)OC(=O)c1cc(O)c(O)c(O)c1	1.54
CCCNC(=O)c1[nH]nc(C)c1[N+](=O)[O-]	0.65
CCCCCCCCCCCCCC[n+]1ccccc1.[Br-]	1.32
CN(C)/N=N/c1ccccc1I	3.5
FC(F)(F)Br	1.86
COc1ccc(O)cc1	1.58
CCC(=O)c1ccc(O)cc1	2.03
CCN1CC(C(O)C(CC2CCCCC2)NC(=O)C(Cc2c[nH]cn2)NC(=O)C(CC(=O)N2CC(OCOCCOC)C(OCOCCOC)C2)Cc2ccccc2)OC1=O (configuration not stated)	1.87
Nc1nc(N)nc(-c2cccc(SC(F)(F)F)c2)n1	3.2
Cc1cc[nH]c(=O)n1	-1.45
COc1noc2c1CNCC2	-0.04
CNS(=O)(=O)c1ccc(N)cc1	-0.01
COC(=O)c1cnc2ccccc2c1	2.25
NCCc1ccccc1	1.41
c1ccc2c(c1)nnc1ccccc12	2.4

— the OPERA property sets (Mansouri et al. 2018)
